In brackets after ≈: the same amount, converted by molar mass. Where two headings read alike, the source gives them in different places.
Legend:
C. difficile 173 = test: MIC by agar dilution against Clostridioides difficile, test strain 17; format: cell-based
C. difficile 161 = test: MIC by agar dilution against Clostridioides difficile, test strain 16; format: cell-based
C. difficile 174 = test: MIC by agar dilution against Clostridioides difficile, test strain 18; format: cell-based
S. epidermis^MR = test: MIC by broth microdilution (aerobic pathogens), test strain 6; format: cell-based, Methicillin resistant Staphylococcus epidermidis; conditions: Staphylococcus epidermidis
Summary of the method: (§1)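 Broth microdilution per CLSI M7-A5 standards was used. MIC was taken as the lowest antibiotic concentration inhibiting bacterial growth by 90% relative to the untreated growth control.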

C. difficile 152 = test: MIC by agar dilution against Clostridioides difficile, test strain 14; format: cell-based
E. faecalis^LinR = test: MIC by broth microdilution (aerobic pathogens), test strain 9; format: cell-based, Linezolid resistant Enterococcus faecalis; conditions: Enterococcus faecalis; test strain 9, E. faecalis^LinR (linezolid resistant); read-out: MIC
Summary of the method: as §1

E. faecalis = test: MIC by broth microdilution (aerobic pathogens), test strain 7; format: cell-based; conditions: Enterococcus faecalis
Summary of the method: as §1

S. aureus^MS [1] = test: MIC by broth microdilution (aerobic pathogens), test strain 2; format: cell-based; conditions: Staphylococcus aureus; test strain 2, S. aureus^MS; read-out: MIC
Summary of the method: as §1

E. faecalis^VanA = test: MIC by broth microdilution (aerobic pathogens), test strain 8; format: cell-based, Vancomycin resistant Enterococcus faecalis; conditions: Enterococcus faecalis; test strain 8, E. faecalis^VanA (vancomycin resistant); read-out: MIC
Summary of the method: as §1

M. avium = test: MIC by resazurin (REMA) assay against Mycobacterium, test strain 21; format: cell-based; conditions: test strain 21, M. avium, resazurin, read-out: MIC
Method: (§2) In order to test the antibacterial activity, the medium of Mycobacterium cultured to late log phase was diluted so as to be 4.0×10^5 cells/well in Middlebrook 7H10 agar medium (Difco) supplemented with 10% oleic acid, albumin, dextrose, catalase (OADC, Becton Dickinson) and 0.05% Tween 80 (Sigma Aldrich) and was dispensed into a 96-well plate. The compounds were treated so that DMSO was 1%, and after 3 days, a 0.025% resazurin (REMA) solution was dispensed, and the growth of the bacteria was confirmed after culturing. The MIC value was measured for the antibacterial activity through resazurin (excitation 530 nm, emission 590 nm).

S. aureus^MS [2] = test: MIC by broth microdilution (aerobic pathogens), test strain 1; format: cell-based; conditions: Staphylococcus aureus
Summary of the method: as §1

C. difficile 181 = test: MIC by agar dilution against Clostridioides difficile, test strain 19; format: cell-based
C. difficile 9689 = test: MIC by agar dilution against Clostridioides difficile, test strain 13; format: cell-based
S. epidermis = test: MIC by broth microdilution (aerobic pathogens), test strain 5; format: cell-based; conditions: Staphylococcus epidermidis
Summary of the method: as §1

E. faecium = test: MIC by broth microdilution (aerobic pathogens), test strain 10; format: cell-based; conditions: Enterococcus faecium; test strain 10, E. faecium; read-out: MIC
Summary of the method: as §1

M. intracelluare = test: MIC by resazurin (REMA) assay against Mycobacterium, test strain 22; format: cell-based; conditions: Mycobacterium intracellulare
Method: as §2

M. abscessus = test: MIC by resazurin (REMA) assay against Mycobacterium, test strain 23; format: cell-based; conditions: Mycobacteroides abscessus
Method: as §2

E. faecium^LinR = test: MIC by broth microdilution (aerobic pathogens), test strain 12; format: cell-based, Linezolid resistant Enterococcus faecium; conditions: Enterococcus faecium; test strain 12, E. faecium^LinR (linezolid resistant); read-out: MIC
Method: The antibacterial activity of the compounds of Examples 1 to 48 of the present invention against aerobic pathogens were evaluated by measuring the minimum concentration of the antibiotic capable of inhibiting bacterial growth by 90% compared to the growth of the non-drug treated control group. MIC was measured by the broth microdilution method based on CLSI standards [Reference: Clinical and Laboratory Standards Institute Document. (2000) Methods for Dilution Antimicrobial Susceptibility Test for Bacteria that Grow Aerobically-Fifth Edition: M7-A5. CLSI, Villanova, PA].
All 13 strains such as methicillin susceptible Staphylococcus aureus (MSSA), methicillin resistant Staphylococcus aureus (MRSA), Vancomycin resistant Staphylococcus aureus (VRSA), Staphylococcus epidermidis, methicillin resistant Staphylococcus epidermidis, Enterococcus faecalis, Vancomycin resistant Enterococcus faecalis, Enterococcus faecium, Vancomycin resistant Enterococcus faecium were used.

[3] = test strain 17, C. difficile 173, anaerobic, agar dilution, read-out: MIC
[4] = test strain 16, C. difficile 161, anaerobic, agar dilution, read-out: MIC
[5] = test strain 18, C. difficile 174, anaerobic, agar dilution, read-out: MIC
[6] = test strain 6, S. epidermis^MR (methicillin resistant), read-out: MIC
[7] = test strain 14, C. difficile 152, anaerobic, agar dilution, read-out: MIC
[8] = test strain 7, E. faecalis, read-out: MIC
[9] = test strain 1, S. aureus^MS, read-out: MIC
[10] = test strain 13, C. difficile 9689, anaerobic, agar dilution, read-out: MIC
[11] = test strain 5, S. epidermis, read-out: MIC
[12] = test strain 22, M. intracelluare, resazurin, read-out: MIC
[13] = test strain 23, M. abscessus, resazurin, read-out: MIC

Row | Compound | MIC (C. difficile 173; [3]) [µg/mL] | MIC (C. difficile 161; [4]) [µg/mL] | MIC (C. difficile 174; [5]) [µg/mL] | MIC (S. epidermis^MR; [6]) [µg/mL] | MIC (C. difficile 152; [7]) [µg/mL] | MIC (E. faecalis^LinR) [µg/mL] | MIC (E. faecalis; [8]) [µg/mL] | MIC (S. aureus^MS [1]) [µg/mL] | MIC (M. avium) [µg/mL] | MIC (S. aureus^MS [2]; [9]) [µg/mL] | MIC (C. difficile 9689; [10]) [µg/mL] | MIC (S. epidermis; [11]) [µg/mL] | MIC (E. faecium) [µg/mL] | MIC (M. intracelluare; [12]) [µg/mL] | MIC (M. abscessus; [13]) [µg/mL] | other results
1 | C/C=C1\NC(=O)[C@H]([C@@H](C)O)NC(=O)c2csc(n2)-c2ccc(-c3nc(-c4nc(C(=O)NC5(C(=O)NCCCN6CCN(C(C)C)CC6)CC5)cs4)cs3)nc2-c2csc(n2)[C@H]([C@@H](C)O)NC(=O)c2csc(n2)[C@H](C(C)C)NC(=O)c2csc1n2 [Compound 12] | 1 (≈ 0.797 µM) | 0.5 (≈ 0.399 µM) | 0.125 (≈ 0.0996 µM) | 1 (≈ 0.797 µM) | 1 (≈ 0.797 µM) | 1 (≈ 0.797 µM) | 1 (≈ 0.797 µM) | 1 (≈ 0.797 µM) | 0.135 (≈ 0.108 µM) | 1 (≈ 0.797 µM) | 0.5 (≈ 0.399 µM) | 0.5 (≈ 0.399 µM) | 1 (≈ 0.797 µM) | – | – | MIC (E. faecalis^VanA): 1 µg/mL (≈ 0.797 µM); MIC (C. difficile 181; test strain 19, C. difficile 181, anaerobic, agar dilution, read-out: MIC): 0.125 µg/mL (≈ 0.0996 µM)
2 | C/C=C1\NC(=O)[C@H]([C@@H](C)O)NC(=O)c2csc(n2)-c2ccc(-c3nc(-c4nc(C(=O)NC5(C(=O)NN6CC(=O)N(CC(=O)OC)C6=O)CC5)cs4)cs3)nc2-c2csc(n2)[C@H]([C@@H](C)O)NC(=O)c2csc(n2)[C@H](C(C)C)NC(=O)c2csc1n2 [Compound 26] | – | – | – | – | – | – | – | – | – | – | – | – | – | – | – | MIC (C. difficile 173; 173): 0.5 µg/mL (≈ 0.398 µM); MIC (C. difficile 161; 161): 0.5 µg/mL (≈ 0.398 µM); MIC (C. difficile 174; 174): 0.5 µg/mL (≈ 0.398 µM); MIC (S. epidermis^MR): 1 µg/mL (≈ 0.796 µM); MIC (C. difficile 152; 152): 0.5 µg/mL (≈ 0.398 µM); MIC (E. faecalis): 1 µg/mL (≈ 0.796 µM); MIC (M. intracelluare): 0.043 µg/mL (≈ 0.0342 µM); MIC (S. aureus^MS [2]): 1 µg/mL (≈ 0.796 µM); MIC (M. abscessus): 0.726 µg/mL (≈ 0.578 µM); MIC (C. difficile 181; 181): 1 µg/mL (≈ 0.796 µM); MIC (C. difficile 9689; 9689): 1 µg/mL (≈ 0.796 µM); MIC (S. epidermis): 0.5 µg/mL (≈ 0.398 µM)
3 | CC[C@H]1OC(=O)[C@H](C)[C@@H](O[C@H]2C[C@@](C)(OC)[C@@H](O)[C@H](C)O2)[C@H](C)[C@@H](O[C@@H]2O[C@H](C)C[C@H](N(C)C)[C@H]2O)[C@](C)(OC)C[C@@H](C)C(=O)[C@H](C)[C@@H](O)[C@]1(C)O [Cla, Clarithromycin, reference compound] | – | – | – | – | – | – | – | – | 0.205 (≈ 0.274 µM) | – | – | – | – | 0.143 (≈ 0.191 µM) | 1.28 (≈ 1.71 µM) | –
4 | C/C=C1\NC(=O)[C@H]([C@@H](C)O)NC(=O)c2csc(n2)-c2ccc(-c3nc(-c4nc(C(=O)NC5(C(=O)NCCCN6CCSCC6)CC5)cs4)cs3)nc2-c2csc(n2)[C@H]([C@@H](C)O)NC(=O)c2csc(n2)[C@H](C(C)C)NC(=O)c2csc1n2 [Compound 18] | 1 (≈ 0.813 µM) | 1 (≈ 0.813 µM) | 0.25 (≈ 0.203 µM) | 1 (≈ 0.813 µM) | 0.25 (≈ 0.203 µM) | 0.5 (≈ 0.407 µM) | 1 (≈ 0.813 µM) | 1 (≈ 0.813 µM) | 0.082 (≈ 0.0667 µM) | 0.25 (≈ 0.203 µM) | 0.5 (≈ 0.407 µM) | 0.5 (≈ 0.407 µM) | 1 (≈ 0.813 µM) | 0.127 (≈ 0.103 µM) | 0.173 (≈ 0.141 µM) | –
5 | C/C=C1\NC(=O)[C@H]([C@@H](C)O)NC(=O)c2csc(n2)-c2ccc(-c3nc(-c4nc(C(=O)NC5(C(=O)NCCN6CCN(S(N)(=O)=O)CC6)CC5)cs4)cs3)nc2-c2csc(n2)[C@H]([C@@H](C)O)NC(=O)c2csc(n2)[C@H](C(C)C)NC(=O)c2csc1n2 [Compound 30] | – | – | – | 1 (≈ 0.783 µM) | – | 0.5 (≈ 0.391 µM) | 1 (≈ 0.783 µM) | 1 (≈ 0.783 µM) | 0.089 (≈ 0.0697 µM) | 0.5 (≈ 0.391 µM) | – | 0.25 (≈ 0.196 µM) | – | 0.024 (≈ 0.0188 µM) | 0.559 (≈ 0.438 µM) | –
6 | C/C=C1\NC(=O)[C@H]([C@@H](C)O)NC(=O)c2csc(n2)-c2ccc(-c3nc(-c4nc(C(=O)NC5(C(=O)NCCN6CCN(C(C)C)CC6)CC5)cs4)cs3)nc2-c2csc(n2)[C@H]([C@@H](C)O)NC(=O)c2csc(n2)[C@H](C(C)C)NC(=O)c2csc1n2 [Compound 35] | – | – | – | 0.5 (≈ 0.403 µM) | – | 1 (≈ 0.806 µM) | 0.5 (≈ 0.403 µM) | – | 0.109 (≈ 0.0879 µM) | 0.5 (≈ 0.403 µM) | – | 0.25 (≈ 0.202 µM) | – | 0.139 (≈ 0.112 µM) | 0.123 (≈ 0.0991 µM) | MIC (E. faecium^LinR): 1 µg/mL (≈ 0.806 µM)

From patent US12637478B2, “Compound, preparation method thereof, and antibiotic composition comprising same” (priority 2020, dated 2026)
